The subject of data set [1] is bloodstream form T. brucei brucei. The experiment in a line: T. b. brucei whole cell parasite (trypanosome growth) assay. The format is cell-based, Trypanosoma brucei brucei. How it is done: This was conducted as previously described.[27] Cell culture plates were stamped with 1 μL of an appropriate stock concentration of test compound, followed by addition of 200 μL of trypanosome culture (HMI9-T, 10% FCS) to each well at a density of 2000 cells per well (except column 12 receiving media only). […] Potency was carried out using 10-point dose–response curves.

Data set [2] in a line: Mouse brain penetration (brain:blood ratio). The conditions noted are these: in vivo, dosed intravenously at 0.5 or 1 mg/kg, levels measured after 5 min, female NMRI mice, read-out: B:B (brain to blood ratio). How it is done:
Each compound was dosed as a bolus solution intravenously at 0.5 or 1 mg free base/kg (dose volume, 5 mL/kg; dose vehicle, 10% DMSO; 40% PEG400; 50% Milli-Q water) to female NMRI mice (n = 6). At 5 and 30 min following intravenous bolus injection of test compound, mice (n = 3/time point) were placed under terminal anesthesia with isofluorane. A blood sample was taken by cardiac puncture and mixed with two volumes of distilled water, the mice decapitated, and the brain removed. Diluted blood and brains were stored frozen until preparation and analysis by UPLC/MS/MS. For each mouse at each time point, the concentration in brain (ng/g) was divided by the concentration in blood (ng/mL) to give a brain:blood ratio. The mean value obtained was quoted.

The values that follow come from article PMC4601051, “Discovery of Indoline-2-carboxamide Derivatives as a New Class of Brain-Penetrant Inhibitors of Trypanosoma brucei” (Journal of Medicinal Chemistry, 2015).

The structures appear in SMILES notation.

With `CNC(=O)[C@H]1Cc2ccccc2N1C(=O)Cc1ccc(F)cc1` [Compound 47, (R)-1-(2-(4-Fluorophenyl)acetyl)-N-methylindoline-2-carboxamide], the Hill slope in data set [1] (T. brucei EC50 curve) was found to be 2.8. In addition, in data set [1] (Trypanosoma brucei, mean of two or more determinations, 69 h + 4 h resazurin, read-out: T. b. brucei EC50), the concentration giving a half-maximal response (EC50) came out at 50 nM. Besides, the Kp at 5 min in data set [2] amounted to 0.9.

By Hill slope is commonly meant the slope factor of the fitted curve. As a reminder, the EC50 is the midpoint of the concentration-response curve.
